Activity calls are given as the source filed them. No cut-off for these calls is given here.
Key:
Carbonic anhydrase 9 = Carbonic anhydrase 9 (Homo sapiens, UniProt Q16790)
HL-60(TB) [1] = experiment: Cytotoxicity against human HL-60(TB) cells; type: functional
MOLT-4 [2] = experiment: Cytotoxicity against human MOLT4 cells at 10 uM; type: functional; details: read-out: GI
NCI/ADR-RES = experiment: Cytotoxicity against human NCI-ADR-RES cells at 10 uM; type: functional
UACC-62 [3] = experiment: Cytotoxicity against human UACC62 cells at 10 uM; type: functional; details: read-out: GI
SK-MEL-2 [4] = experiment: Cytotoxicity against human SK-MEL-2 cells at 10 uM; type: functional; details: read-out: GI
IGROV-1 = experiment: Cytotoxicity against human IGROV1 cells; type: functional
MDA-MB-435 = experiment: Cytotoxicity against human MDA-MB-435 cells; type: functional
SF-268 [5] = experiment: Cytotoxicity against human SF268 cells; type: functional
HCC 2998 = experiment: Cytotoxicity against human HCC2998 cells; type: functional
A549 = experiment: Cytotoxicity against human A549 cells at 10 uM; type: functional; details: read-out: GI
NCI-H460 [6] = experiment: Cytotoxicity against human NCI-H460 cells at 10 uM; type: functional; details: read-out: GI
SF-539 = experiment: Cytotoxicity against human SF539 cells; type: functional
SNB-19 = experiment: Cytotoxicity against human SNB19 cells; type: functional
SR [7] = experiment: Cytotoxicity against human SR cells; type: functional
SW-620 = experiment: Cytotoxicity against human SW620 cells at 10 uM; type: functional; details: read-out: GI
A498 [8] = experiment: Cytotoxicity against human A498 cells at 10 uM; type: functional; details: read-out: GI
MOLT-4 [9] = experiment: Cytotoxicity against human MOLT4 cells; type: functional
[10] = Cytotoxicity against human Hs 578T cells at 10 uM; type: functional; details: read-out: GI
K562 [11] = experiment: Cytotoxicity against human K562 cells; type: functional
BT-549 = experiment: Cytotoxicity against human BT549 cells; type: functional
RPMI-8226 [12] = experiment: Cytotoxicity against human RPMI8226 cells at 10 uM; type: functional; details: read-out: GI
[13] = Cytotoxicity against human OVCAR4 cells; type: functional
SNB-75 [14] = experiment: Cytotoxicity against human SNB75 cells; type: functional
HOP-92 [15] = experiment: Cytotoxicity against human HOP92 cells; type: functional
HCT-116 = experiment: Cytotoxicity against human HCT116 cells; type: functional
PC-3 [16] = experiment: Cytotoxicity against human PC3 cells; type: functional
NCI-H460 [17] = experiment: Cytotoxicity against human NCI-H460 cells; type: functional
[18] = Cytotoxicity against human UACC257 cells; type: functional
CCRF-CEM = experiment: Cytotoxicity against human CCRF-CEM cells; type: functional
NCI-H522 = experiment: Cytotoxicity against human NCI-H522 cells; type: functional
MDA-MB-231 = experiment: Cytotoxicity against human MDA-MB-231 cells; type: functional
Malme-3M = experiment: Cytotoxicity against human MALME-3M cells; type: functional
DU-145 = experiment: Cytotoxicity against human DU145 cells at 10 uM; type: functional; details: read-out: GI
MCF7 [19] = experiment: Cytotoxicity against human MCF7 cells; type: functional
MCF7 [20] = experiment: Cytotoxicity against human MCF7 cells at 10 uM; type: functional; details: read-out: GI
OVCAR-3 [21] = experiment: Cytotoxicity against human OVCAR3 cells; type: functional
K562 [22] = experiment: Cytotoxicity against human K562 cells at 10 uM; type: functional; details: read-out: GI
SF-268 [23] = experiment: Cytotoxicity against human SF268 cells at 10 uM; type: functional; details: read-out: GI
MDA-MB-468 [24] = experiment: Cytotoxicity against human MDA-MB-468 cells at 10 uM; type: functional; details: read-out: GI
KM12 [25] = experiment: Cytotoxicity against human KM12 cells at 10 uM; type: functional; details: read-out: GI
A498 [26] = experiment: Cytotoxicity against human A498 cells; type: functional
SNB-75 [27] = experiment: Cytotoxicity against human SNB75 cells at 10 uM; type: functional; details: read-out: GI
SK-MEL-2 [28] = experiment: Cytotoxicity against human SK-MEL-2 cells; type: functional
HL-60(TB) [29] = experiment: Cytotoxicity against human HL-60(TB) cells at 10 uM; type: functional; details: read-out: GI
MDA-MB-468 [30] = experiment: Cytotoxicity against human MDA-MB-468 cells; type: functional
T47D [31] = experiment: Cytotoxicity against human T47D cells; type: functional
UACC-62 [32] = experiment: Cytotoxicity against human UACC62 cells; type: functional
OVCAR-3 [33] = experiment: Cytotoxicity against human OVCAR3 cells at 10 uM; type: functional; details: read-out: GI
[34] = Cytotoxicity against human Hs 578T cells; type: functional
HOP-92 [35] = experiment: Cytotoxicity against human HOP92 cells at 10 uM; type: functional; details: read-out: GI
LOX IMVI [36] = experiment: Cytotoxicity against human LOXIMVI cells at 10 uM; type: functional; details: read-out: GI
M14 = experiment: Cytotoxicity against human M14 cells; type: functional
HT-29 = experiment: Cytotoxicity against human HT-29 cells at 10 uM; type: functional; details: read-out: GI
SR [37] = experiment: Cytotoxicity against human SR cells at 10 uM; type: functional; details: read-out: GI
SK-MEL-28 = experiment: Cytotoxicity against human SK-MEL-28 cells; type: functional
T47D [38] = experiment: Cytotoxicity against human T47D cells at 10 uM; type: functional; details: read-out: GI
LOX IMVI [39] = experiment: Cytotoxicity against human LOXIMVI cells; type: functional
COLO 205 = experiment: Cytotoxicity against human COLO205 cells; type: functional
RPMI-8226 [40] = experiment: Cytotoxicity against human RPMI8226 cells; type: functional
KM12 [41] = experiment: Cytotoxicity against human KM12 cells; type: functional
OVCAR-8 = experiment: Cytotoxicity against human OVCAR8 cells; type: functional
PC-3 [42] = experiment: Cytotoxicity against human PC3 cells at 10 uM; type: functional; details: read-out: GI
[43] = read-out: LC50 (the source's name)

## Cc1cc(S(=O)(=O)NC(=N)NCc2ccc(S(N)(=O)=O)cc2)c(SCc2cc(=O)[nH]c3ccccc23)cc1Cl
Carbonic anhydrase 9
  Ki: 0.31 µM

## Cc1cc(S(=O)(=O)NC(=N)Nc2ccc(S(N)(=O)=O)cc2)c(SCc2ccc(C(F)(F)F)cc2)cc1Cl
HL-60(TB) [1]
  GI50: 2.1 µM
  TGI: 5.5 µM
HL-60(TB) [1]; [43]
  CC50: 34.5 µM
MOLT-4 [2]
  inhibition of growth at 10 µM: 60%
NCI/ADR-RES
  growth inhibition (GI): inactive
UACC-62 [3]
  inhibition of growth at 10 µM: 49%
SK-MEL-2 [4]
  inhibition of growth at 10 µM: 43%
IGROV-1
  GI50: 5.8 µM
  TGI: 23.3 µM
IGROV-1; [43]
  CC50: 93 µM
MDA-MB-435
  GI50: 3.8 µM
  TGI: 14.8 µM
MDA-MB-435; [43]
  CC50: 46.1 µM
SF-268 [5]
  GI50: 5.5 µM
  TGI: 21.2 µM
SF-268 [5]; [43]
  CC50: 64.8 µM
HCC 2998
  GI50: 3.9 µM
  TGI: 13.8 µM
HCC 2998; [43]
  CC50: 46.2 µM
A549
  inhibition of growth at 10 µM: 32%
NCI-H460 [6]
  inhibition of growth at 10 µM: 21%
SF-539
  GI50: 4.8 µM
  TGI: 18.3 µM
SF-539; [43]
  CC50: 45.1 µM
SNB-19
  GI50: 5 µM
  TGI: 21.5 µM
SNB-19; [43]
  CC50: 61.1 µM
SR [7]
  GI50: 2.1 µM
  TGI: 5.9 µM
SR [7]; [43]
  CC50: > 100 µM
SW-620
  inhibition of growth at 10 µM: 12%
A498 [8]
  inhibition of growth at 10 µM: 15%
MOLT-4 [9]
  GI50: 2.8 µM
  TGI: 11.2 µM
MOLT-4 [9]; [43]
  CC50: > 100 µM
[10]
  inhibition of growth at 10 µM: 20%
K562 [11]
  GI50: 3.6 µM
  TGI: 21.1 µM
K562 [11]; [43]
  CC50: > 100 µM
BT-549
  GI50: 4.6 µM
  TGI: 18.5 µM
BT-549; [43]
  CC50: 58 µM
RPMI-8226 [12]
  inhibition of growth at 10 µM: 57%
[13]; OVCAR-4
  GI50: 3.9 µM
  TGI: 25.1 µM
[13]; OVCAR-4, read-out: LC50 (the source's name)
  CC50: > 100 µM
SNB-75 [14]
  GI50: 2.7 µM
  TGI: 17.4 µM
SNB-75 [14]; [43]
  CC50: 66.1 µM
HOP-92 [15]
  GI50: 2.7 µM
  TGI: 8.6 µM
HOP-92 [15]; [43]
  CC50: 33.9 µM
HCT-116
  GI50: 4 µM
  TGI: 15.4 µM
HCT-116; [43]
  CC50: 45.9 µM
PC-3 [16]
  GI50: 3.7 µM
  TGI: 13.7 µM
PC-3 [16]; [43]
  CC50: 40.9 µM
NCI-H460 [17]
  GI50: 4.2 µM
  TGI: 18.5 µM
NCI-H460 [17]; [43]
  CC50: 90 µM
[18]; UACC-257
  GI50: 3.6 µM
  TGI: 15.2 µM
[18]; UACC-257, read-out: LC50 (the source's name)
  CC50: 41.1 µM
CCRF-CEM
  GI50: 3.8 µM
  TGI: 15.2 µM
CCRF-CEM; [43]
  CC50: 86.2 µM
NCI-H522
  GI50: 3.9 µM
  TGI: 16.3 µM
NCI-H522; [43]
  CC50: 48.5 µM
MDA-MB-231
  GI50: 2.5 µM
  TGI: 11.1 µM
MDA-MB-231; [43]
  CC50: 37 µM
Malme-3M
  GI50: 6.7 µM
  TGI: 21 µM
Malme-3M; [43]
  CC50: 52.5 µM
DU-145
  inhibition of growth at 10 µM: 9%
MCF7 [19]
  GI50: 2.9 µM
  TGI: 14.1 µM
MCF7 [19]; [43]
  CC50: 69.7 µM
MCF7 [20]
  inhibition of growth at 10 µM: 69%
OVCAR-3 [21]
  GI50: 3.9 µM
  TGI: 14 µM
OVCAR-3 [21]; [43]
  CC50: 39 µM
K562 [22]
  inhibition of growth at 10 µM: 64%
SF-268 [23]
  inhibition of growth at 10 µM: 31%
MDA-MB-468 [24]
  inhibition of growth at 10 µM: 63%
KM12 [25]
  inhibition of growth at 10 µM: 50%
A498 [26]
  GI50: 4.6 µM
  TGI: 21.1 µM
A498 [26]; [43]
  CC50: 53.7 µM
SNB-75 [27]
  inhibition of growth at 10 µM: 71%
SK-MEL-2 [28]
  GI50: 2.4 µM
  TGI: 6.3 µM
SK-MEL-2 [28]; [43]
  CC50: 25.3 µM
HL-60(TB) [29]
  inhibition of growth at 10 µM: 66%
MDA-MB-468 [30]
  GI50: 2.7 µM
  TGI: 15 µM
MDA-MB-468 [30]; [43]
  CC50: 81.6 µM
T47D [31]
  GI50: 5.1 µM
  TGI: 22.8 µM
T47D [31]; [43]
  CC50: 95.8 µM
UACC-62 [32]
  GI50: 2.6 µM
  TGI: 10.4 µM
UACC-62 [32]; [43]
  CC50: 33 µM
OVCAR-3 [33]
  inhibition of growth at 10 µM: 50%
[34]
  GI50: 3.7 µM
  TGI: 24.6 µM
[34]; [43]
  CC50: > 100 µM
HOP-92 [35]
  inhibition of growth at 10 µM: 58%
LOX IMVI [36]
  inhibition of growth at 10 µM: 29%
M14
  GI50: 7.3 µM
  TGI: 22 µM
M14; [43]
  CC50: 56.3 µM
HT-29
  inhibition of growth at 10 µM: 22%
SR [37]
  inhibition of growth at 10 µM: 72%
SK-MEL-28
  GI50: 4.2 µM
  TGI: 15.6 µM
SK-MEL-28; [43]
  CC50: 46.6 µM
T47D [38]
  inhibition of growth at 10 µM: 58%
LOX IMVI [39]
  GI50: 4.9 µM
  TGI: 17.7 µM
LOX IMVI [39]; [43]
  CC50: 48.4 µM
COLO 205
  GI50: 4.4 µM
  TGI: 17.7 µM
COLO 205; [43]
  CC50: 80.6 µM
RPMI-8226 [40]
  GI50: 3.1 µM
  TGI: 11 µM
RPMI-8226 [40]; [43]
  CC50: > 100 µM
KM12 [41]
  GI50: 3.1 µM
  TGI: 10.9 µM
KM12 [41]; [43]
  CC50: 40.2 µM
OVCAR-8
  GI50: 4.6 µM
  TGI: 22.9 µM
OVCAR-8; [43]
  CC50: 87.6 µM
PC-3 [42]
  inhibition of growth at 10 µM: 74%

## Cc1cc(S(=O)(=O)NC(=N)NCc2ccc(S(N)(=O)=O)cc2)c(SCc2cccc(C(F)(F)F)c2)cc1Cl
Carbonic anhydrase 9
  Ki: 0.017 µM

From ChEMBL document CHEMBL3102853, “Carbonic anhydrase inhibitors. Synthesis, and molecular structure of novel series N-substituted N'-(2-arylmethylthio-4-chloro-5-methylbenzenesulfonyl)guanidines and their inhibition of human cytosolic isozymes I and II and the transmembrane tumor-associated isozymes IX and XII” (Eur J Med Chem, 2014)
